Data set [1] is described as follows: Nephrotoxicity in Balb/c mouse xenografted with human MCF7 cells assessed as effect on creatinine level in serum at 5 to 10 mg/kg, iv measured after 24 hrs. It counts as toxicity, organism-based. Conditions: in vivo, dose 5-10 mg/kg. For orientation: In xenograft studies the graft and the host belong to different species.
Data set [2] can be described thus: Toxicity in Balb/c mouse xenografted with human MCF7 cells assessed as effect on lungs morphological changes at 5 to 10 mg/kg, iv measured after 24 hrs by Hematoxylin-Eosin staining based analysis. It counts as organism-based. Conditions: in vivo, dose 5-10 mg/kg.
A short description of data set [3]: Toxicity in Balb/c mouse xenografted with human MCF7 cells assessed as effect on lymphocytes count at 5 to 10 mg/kg, iv measured after 24 hrs. Conditions: in vivo, dose 5-10 mg/kg. It counts as organism-based.
Data set [4] can be described thus: Toxicity in Balb/c mouse xenografted with human MCF7 cells assessed as effect on hemoglobin content at 5 to 10 mg/kg, iv measured after 24 hrs. It counts as organism-based. Conditions: in vivo, dose 5-10 mg/kg.
Data set [5] deals with T1, Estrogen receptor (Homo sapiens) (UniProt P03372).
T1 sequence (whole entry): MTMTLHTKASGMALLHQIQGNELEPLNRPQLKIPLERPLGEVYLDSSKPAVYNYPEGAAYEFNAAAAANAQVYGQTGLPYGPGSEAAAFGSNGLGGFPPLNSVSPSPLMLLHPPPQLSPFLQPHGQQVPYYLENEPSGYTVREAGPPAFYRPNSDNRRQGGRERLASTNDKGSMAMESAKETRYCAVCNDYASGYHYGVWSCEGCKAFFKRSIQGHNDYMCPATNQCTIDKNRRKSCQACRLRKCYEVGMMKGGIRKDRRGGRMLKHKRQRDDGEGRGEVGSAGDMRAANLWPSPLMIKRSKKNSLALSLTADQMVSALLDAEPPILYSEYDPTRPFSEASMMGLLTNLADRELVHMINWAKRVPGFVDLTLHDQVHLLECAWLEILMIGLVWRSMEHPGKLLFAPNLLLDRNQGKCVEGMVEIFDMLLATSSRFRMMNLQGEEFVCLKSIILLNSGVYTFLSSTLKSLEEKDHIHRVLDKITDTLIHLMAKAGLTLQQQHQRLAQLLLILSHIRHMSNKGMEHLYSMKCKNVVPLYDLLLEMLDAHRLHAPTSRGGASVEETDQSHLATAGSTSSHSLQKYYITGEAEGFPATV
The data set can be described thus: HyT degrader activity at ER-alpha in human MCF7 cells assessed as induction of ER-alpha degradation at 10 uM incubated for 24 hrs by western blot analysis. It counts as cell-based. For orientation: In western blotting, separated proteins are transferred to a membrane and probed.

The nature of data set [6]: Nephrotoxicity in Balb/c mouse xenografted with human MCF7 cells assessed as effect on blood urea nitrogen level in serum at 5 to 10 mg/kg, iv measured after 24 hrs. It counts as toxicity, organism-based. Conditions: in vivo, dose 5-10 mg/kg.
Data set [7] deals with T1, Estrogen receptor (Homo sapiens). The data set can be described thus: HyT degrader activity at ER-alpha in human MCF7 cells assessed as induction of ER-alpha degradation by measuring decrease in ER-alpha level at 10 uM incubated for 48 hrs by western blot analysis. It counts as cell-based. Set-up: scale not given: the % may be the effect or the level left.
The target is the same in data set [8]. Kind of data set: HyT degrader activity at ER-alpha in human MCF7 cells assessed as induction of ER-alpha degradation by measuring decrease in ER-alpha level at 10 uM incubated for 72 hrs by western blot analysis. It counts as cell-based.
The nature of data set [9]: Toxicity in Balb/c mouse xenografted with human MCF7 cells assessed as effect on spleen morphological changes at 5 to 10 mg/kg, iv measured after 24 hrs by Hematoxylin-Eosin staining based analysis. It counts as organism-based. Conditions: in vivo, dose 5-10 mg/kg.
Data set [10] addresses T1, Estrogen receptor (Homo sapiens). The data set can be described thus: HyT degrader activity at ER-alpha in human T47D cells assessed as induction of ER-alpha degradation by measuring downregulation of ER-alpha level at 1 to 5 uM incubated for 24 hrs by immunoblot analysis. It counts as cell-based. The conditions noted are these: dose 1-5 µM.
For data set [11], the system named is MCF7. Kind of data set: Antitumor activity against human MCF7 cells xenografted in Balb/c mouse assessed as inhibition of tumor growth at 5 mg/kg, iv administered every 3 days and measured for 21 days. It counts as functional. Conditions: MCF7, 504 h, time 21 day, read-out: TGI.
Data set [12] is described as follows: Hepatotoxicity in Balb/c mouse xenografted with human MCF7 cells assessed as effect on AST level in serum at 5 to 10 mg/kg, iv measured after 24 hrs. It counts as toxicity, organism-based. Conditions: in vivo, dose 5-10 mg/kg.
The subject of data set [13] is MCF7. The data set can be described thus: Antiproliferative activity against human MCF7 cells assessed as reduction in cell viability incubated for 48 hrs by MTT assay. It counts as functional, cell-based. Conditions: MCF7, 48 h.
Data set [14] addresses T1, Estrogen receptor (Homo sapiens). The data set can be described thus: HyT degrader activity at ER-alpha in human MCF7 cells assessed as induction of ER-alpha degradation by measuring decrease in ER-alpha level at 10 uM pretreated with 26S proteasome inhibitor, MG-132 and NAE inhibitor, MLN4924 for 6 hrs followed by incubation with compound for 24 hrs by immunoblot analysis. It counts as cell-based.

Data set [15] deals with Estrogen receptor beta (Homo sapiens) (UniProt Q92731). Kind of data set: Binding affinity to ER-beta in human MCF7 cells at 100 uM incubated for 1 hr followed by exposure to heat at 25 to 66 degC for 3 mins and incubation for 3 mins at room temperature by thermal shift binding assay. It counts as cell-based. The conditions noted are these: time 66.0 min.
Chain of Estrogen receptor beta (Homo sapiens) (Q92731 whole entry): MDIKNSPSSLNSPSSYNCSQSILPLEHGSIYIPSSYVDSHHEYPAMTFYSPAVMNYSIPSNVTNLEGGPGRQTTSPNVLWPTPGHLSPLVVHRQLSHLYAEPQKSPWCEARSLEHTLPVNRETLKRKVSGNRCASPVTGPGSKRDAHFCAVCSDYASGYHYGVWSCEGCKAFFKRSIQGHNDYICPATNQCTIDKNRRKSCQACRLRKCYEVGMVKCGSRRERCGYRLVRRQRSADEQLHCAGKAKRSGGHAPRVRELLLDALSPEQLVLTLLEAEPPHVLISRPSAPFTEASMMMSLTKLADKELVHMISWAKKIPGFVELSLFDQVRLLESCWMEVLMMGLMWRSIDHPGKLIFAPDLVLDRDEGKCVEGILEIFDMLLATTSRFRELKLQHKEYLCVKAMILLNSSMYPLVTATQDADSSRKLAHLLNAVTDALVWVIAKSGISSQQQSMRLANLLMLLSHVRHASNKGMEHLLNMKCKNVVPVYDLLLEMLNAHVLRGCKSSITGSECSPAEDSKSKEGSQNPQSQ
The subject of data set [16] is MCF7. The data set can be described thus: Antiproliferative activity against human MCF7 cells overexpressing EGFR assessed as reduction in cell viability incubated for 48 hrs by MTT assay relative to control. It counts as functional. For orientation: Tetrazolium assays rely on reduction of a dye to a coloured formazan, in cell work by metabolically active cells.
For data set [17], the target named is T1, Estrogen receptor (Homo sapiens). Kind of data set: HyT degrader activity at ER-alpha in human MCF7 cells assessed as induction of ER-alpha degradation by measuring residual ER-alpha level at 10 uM pretreated with HSP70 inhibitor, VER-155008 and HSP90 inhibitor, 17-AAG for 2 hrs followed by incubation with compound for 12 hrs by immunoblot analysis. It counts as cell-based.

Data set [18] in a line: Toxicity in Balb/c mouse xenografted with human MCF7 cells assessed as effect on white blood cells count at 5 to 10 mg/kg, iv measured after 24 hrs. It counts as organism-based. Conditions: in vivo, dose 5-10 mg/kg.
Data set [19] deals with T1, Estrogen receptor (Homo sapiens). Kind of data set: HyT degrader activity at ER-alpha in human MCF7 cells assessed as induction of ER-alpha degradation incubated for 24 hrs by western blot analysis. It counts as cell-based. The conditions noted are these: dose 0.01-100 µM.
Data set [20] has the same target. The data set can be described thus: HyT degrader activity at ER-alpha in human MCF7 cells assessed as induction of ER-alpha degradation by measuring decrease in ER-alpha level at 10 uM pretreated with HSP90 inhibitor, 17-AAG for 2 hrs followed by incubation with compound for 12 hrs by immunoblot analysis. It counts as cell-based.

Structures are written as SMILES. Calls of active or inactive are those of the source. No cut-off for these calls is given here. A value given as a limit tells only on which side of the number the result lay.

What is called IC50 is the concentration at which inhibition is half-maximal. On to `C[C@@H]1CCC2[C@]34OO[C@](C)(CCC13)O[C@@H]4O[C@]2(C)C(=O)NCCCOc1ccc(C(=O)c2c(-c3ccc(O)cc3)sc3cc(O)ccc23)cc1` (stereo not given in full), for which the Activity result in data set [1] is “Non-toxic”; in data set [2] it was “Non-toxic”; in [3] it was “Non-toxic”; in data set [4], “Non-toxic”; in [5], 83.1%; in [6] it was “Non-toxic”. Besides, the Activity in data set [7] is more than 99%; in data set [9] it was “Non-toxic”; in data set [12] it was “Non-toxic”; in data set [15], “Active; Weak Affinity”; in data set [17], 91%; in data set [18], “Non-toxic”. Further, in data set [19], the Activity result is “Dose-dependent-effect”. Moreover, the outcome in [8] and in data set [10] was Active. Besides, in the data set with MCF7 [11], the inhibition in vivo at 5 mg/kg worked out at 93.3%. Also, the IC50 in the data set with MCF7 [13] worked out at 2.28 µM. The outcome in data set [14] and in [20] was inactive. Further, the “inhibition (INH)” value with MCF7 [16] was 56.7%.

Values taken from ChEMBL document CHEMBL6096682, “Discovery of D-Ring-Contracted Artemisinin as a Potent Hydrophobic Tag for Targeted Protein Degradation” (J Med Chem, 2025).
